This is an account of results in ChEMBL document CHEMBL1201862, “PubChem BioAssay data set” (2004).

In one experiment the target is T1, Cysteine protease ATG4B (Homo sapiens, UniProt Q9Y4P1).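 Also: Fluorescence-based dose-response confirmation assay measuring inhibition of ATG4B activity.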
T1 sequence (Q9Y4P1 whole entry): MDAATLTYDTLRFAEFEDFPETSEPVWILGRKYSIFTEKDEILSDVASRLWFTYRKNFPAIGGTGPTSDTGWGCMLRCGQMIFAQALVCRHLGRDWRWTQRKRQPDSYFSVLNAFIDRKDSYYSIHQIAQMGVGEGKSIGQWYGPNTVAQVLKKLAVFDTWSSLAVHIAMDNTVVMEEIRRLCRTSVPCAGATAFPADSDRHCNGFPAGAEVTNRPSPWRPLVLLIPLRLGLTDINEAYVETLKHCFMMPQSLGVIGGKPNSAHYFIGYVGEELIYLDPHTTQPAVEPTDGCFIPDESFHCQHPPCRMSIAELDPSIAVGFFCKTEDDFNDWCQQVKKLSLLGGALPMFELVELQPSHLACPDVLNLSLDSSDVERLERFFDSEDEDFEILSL
It is filed as functional.

In another experiment the target is Phospholipase A2 (Homo sapiens, UniProt P04054). It is filed as functional.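 Also: confirmatory dose-response counterscreen on phospholipase A2, testing hits that came from an ultra-high-throughput screen for ATG4B inhibitors.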
In experiment [1] the target is Tyrosine-protein phosphatase non-receptor type 5 (Homo sapiens, UniProt P54829). In words: PTPN5 enzyme inhibition – biochemical, fluorescence intensity, uHTS hits, confirmation (AID 602372). The format is functional. The note with it: read-out: IC50_Mean.
Experiment [2] addresses Tyrosine-protein phosphatase non-receptor type 11 (Homo sapiens, UniProt Q06124). In words: PTPN11 enzyme inhibitors – biochemical, selectivity assay for STEP inhibitor project, dose response (AID 602367). The format is functional. The note with it: read-out: IC50_Mean.
For experiment [3], the target named is T2, Dual specificity protein phosphatase 3 (Homo sapiens, UniProt P51452). In words: VHR phosphatase inhibition, dose response, selectivity assay for STEP inhibitor project, biochemical (AID 602374). The note with it: read-out: IC50_Mean. The format is functional.
Experiment [4] in a line: DRD fibroblast viability loss – cell-based, non-viral oncogenic, luminescence, dose response (AID 1934). The format is functional. Particulars: Homo sapiens.
Experiment [5] has as its system BJ. In words: BJ-TERT-LT-ST fibroblast viability loss – cell-based, RAS-independent, luminescence, dose response (AID 1935).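 Also: BJ fibroblasts immortalized with TERT plus LT and ST oncogenes.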 Particulars: Homo sapiens. The format is functional.
Experiment [6] deals with BJ. In words: growth inhibition of engineered Ras-driven BJ cells – cell-based, alamar blue fluorescence, cherrypicked samples, dose response (AID 2631).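 Also: confirmatory dose-response assay in RAS-dependent BJ fibroblasts engineered with TERT, LT and ST, with cytotoxicity read by fluorescence.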 Particulars: Homo sapiens. The format is functional.
A short description of experiment [7]: Luminescence Cell-Based Dose Retest to Confirm Inhibitors of Cancer Stem Cells. [Related pubchem assays (depositor defined):AID2717, AID2721]. It is filed as functional. The note with it: Homo sapiens.
The target of experiment [8] is DNA (cytosine-5)-methyltransferase 1 (Homo sapiens, UniProt P26358). In words: inhibition of DNA methylation by DNMT1 – biochemical, fluorescent molecular beacon, confirmation (AID 602386). The format is functional.
Experiment [9] relates to BJ. In words: BJ-TERT fibroblast viability loss – cell-based, RAS-independent, luminescence, dose response (AID 1933). It is filed as functional. The note with it: Homo sapiens.
Experiment [10] has as its system BJ. In words: cells. Particulars: Homo sapiens. The format is functional, cell-based.
Experiment [11] is described as follows: Luminescence Cell-Based Dose Confirmation HTS to Identify Inhibitors of Platelet Dense Granule Release. [Related pubchem assays: 1663 (Primary HTS), 1678 (Summary of Project)]. It is filed as functional.
The target in experiment [12] is Luciferin 4-monooxygenase (Photinus pyralis, UniProt P08659). In words: inhibition of purified Photinus pyralis luciferase – biochemical, luminescence, dose response (AID 1891).
Experiment [13] can be described thus: Vero cell cytotoxicity, cytotoxicity control for M. tuberculosis inhibitor project, purified and synthesized samples, set 3 (AID 504684). The note with it: […]. The format is functional.
In experiment [14] the target is T3, High affinity choline transporter 1 (Homo sapiens, UniProt Q9GZV3).
T3 sequence (Q9GZV3 whole entry): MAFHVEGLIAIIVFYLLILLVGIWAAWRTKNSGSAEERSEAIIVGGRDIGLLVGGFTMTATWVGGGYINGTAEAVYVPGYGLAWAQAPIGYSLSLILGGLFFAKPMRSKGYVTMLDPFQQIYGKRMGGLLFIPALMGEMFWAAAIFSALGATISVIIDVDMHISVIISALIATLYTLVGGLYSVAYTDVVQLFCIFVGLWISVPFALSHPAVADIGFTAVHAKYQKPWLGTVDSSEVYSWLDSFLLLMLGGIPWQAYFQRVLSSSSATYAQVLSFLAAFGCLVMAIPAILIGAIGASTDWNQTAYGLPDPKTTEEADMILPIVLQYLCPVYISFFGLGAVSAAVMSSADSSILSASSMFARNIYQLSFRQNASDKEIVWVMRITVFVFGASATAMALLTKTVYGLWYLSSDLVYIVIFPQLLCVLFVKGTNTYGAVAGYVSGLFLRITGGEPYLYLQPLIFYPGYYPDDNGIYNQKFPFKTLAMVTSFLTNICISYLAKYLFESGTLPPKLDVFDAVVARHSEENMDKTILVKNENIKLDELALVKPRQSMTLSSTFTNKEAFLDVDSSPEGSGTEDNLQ
In words: human choline transporter blockers, potency – cell-based, 5-point CRC, membrane potential dye, dose response (AID 504840). The format is functional.

In experiment [15] the target is T3, High affinity choline transporter 1. In words: human choline transporter blockers, potency – cell-based, 10-point CRC, membrane potential dye, dose response (AID 588401).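 Also: membrane potential dye fluorescence of choline-evoked depolarization via CHT.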 It is filed as functional.
For experiment [16], the target named is T2, Dual specificity protein phosphatase 3. In words: VHR1 phosphatase inhibitors, primary screen, biochemical, absorbance, uHTS (AID 1654).
Experiment [17] deals with T4, Dual specificity protein phosphatase 6 (Rattus norvegicus, UniProt Q64346).
T4 sequence (Q64346 whole entry): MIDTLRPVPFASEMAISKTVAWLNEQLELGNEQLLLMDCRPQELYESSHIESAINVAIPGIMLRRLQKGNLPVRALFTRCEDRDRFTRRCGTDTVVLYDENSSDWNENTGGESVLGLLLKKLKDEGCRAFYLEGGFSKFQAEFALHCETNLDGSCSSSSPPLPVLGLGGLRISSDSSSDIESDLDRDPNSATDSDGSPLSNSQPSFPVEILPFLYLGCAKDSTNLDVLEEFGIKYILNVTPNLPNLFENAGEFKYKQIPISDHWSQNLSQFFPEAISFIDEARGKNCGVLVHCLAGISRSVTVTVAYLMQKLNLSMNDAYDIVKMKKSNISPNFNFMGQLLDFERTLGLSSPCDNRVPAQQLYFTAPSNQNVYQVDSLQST
In words: inhibition of rat DUSP6 enzyme activity – biochemical, in vitro, primary screen (AID 425).

Experiment [18] addresses T2, Dual specificity protein phosphatase 3. In words: VHR1 phosphatase inhibitors, biochemical (AID 1878).
The target of experiment [19] is ATP-dependent molecular chaperone HSP82 (Candida albicans (strain WO-1) (Yeast), UniProt C4YTQ8). In words: steroid-induced GRE reporter decrease in yeast – S. cerevisiae, luminescence, Hsp90 inhibitor project, dose response (AID 2400).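 Also: beta-galactosidase luminescence from glucocorticoid response element reporter as proxy for Hsp90 function; inhibitor potency where signal loss means Hsp90 inhibition.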 It is filed as functional, cell-based.
Experiment [20] can be described thus: MIN6 cell viability loss – mouse insulinoma, cytotoxicity control, dose response (AID 2122).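 Also: confirmatory high-throughput counterscreen run to flag cytotoxic compounds.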 It is filed as functional.
For experiment [21], the system named is Streptococcus sp. 'group A'. In words: Streptococcus pyogenes SK(-)GAS viability under kanamycin – luminescence, BacTiterGlo, confirmation, counter-screen for streptokinase expression inhibitor project, dose response (AID 1900). The format is functional, organism-based.
Experiment [22] addresses T5, Serine/threonine-protein phosphatase (Candida dubliniensis (strain CD36 / CBS 7987 / NCPF 3949 / NRRLY-17841) (Yeast), UniProt B9W6M3).
T5 sequence (B9W6M3 whole entry): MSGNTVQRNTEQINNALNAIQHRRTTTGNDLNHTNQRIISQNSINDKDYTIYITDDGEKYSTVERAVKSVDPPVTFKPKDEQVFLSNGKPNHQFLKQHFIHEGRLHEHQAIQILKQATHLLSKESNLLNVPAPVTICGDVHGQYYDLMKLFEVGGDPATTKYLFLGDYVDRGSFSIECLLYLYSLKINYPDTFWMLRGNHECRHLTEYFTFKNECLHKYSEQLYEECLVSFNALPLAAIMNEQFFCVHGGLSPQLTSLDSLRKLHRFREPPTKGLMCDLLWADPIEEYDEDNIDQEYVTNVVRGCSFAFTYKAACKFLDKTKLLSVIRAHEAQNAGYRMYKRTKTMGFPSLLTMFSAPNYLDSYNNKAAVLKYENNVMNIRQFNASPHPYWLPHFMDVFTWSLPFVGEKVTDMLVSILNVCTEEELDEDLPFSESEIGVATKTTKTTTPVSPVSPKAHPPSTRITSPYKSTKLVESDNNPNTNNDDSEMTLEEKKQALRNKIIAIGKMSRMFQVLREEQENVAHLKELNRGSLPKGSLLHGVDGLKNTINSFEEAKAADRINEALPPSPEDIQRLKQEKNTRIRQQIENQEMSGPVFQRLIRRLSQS
In words: blockers of CaCl2-induced CDRE-lacZ signaling – S. cerevisiae, luminescence, secondary, dose response (AID 2388).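 Also: yeast reporter cells carrying a calcineurin-responsive lacZ construct stimulated with calcium chloride; luminescent beta-galactosidase reporter signal in whole cells rather than isolated phosphatase activity; potency for inhibition where a drop in reporter signal means calcineurin blockade.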 The format is functional, cell-based.

The nature of experiment [23]: NIH-3T3 fibroblast cytotoxicity, dose response, cytotoxicity control, cell-based, fluorescence, Alamar Blue, secondary assay (AID 2327).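 Also: NIH-3T3 mouse fibroblasts cultured with fluconazole at 8 µg/mL.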 The format is functional.
Experiment [24] in a line: decrease of insulin promoter-GFP reporter – imaging, high-content screening, mouse beta cells (AID 1628). Particulars: MIN6. It is filed as functional.
Another experiment deals with Streptococcus. In words: GAS UMAA2166 growth inhibition – luminescence, BacTiterGlo, counter-screen for streptokinase expression inhibitor project, dose response (AID 1915).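 Also: potency for reduction of bacterial viability or growth.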 The format is functional, organism-based.
The nature of experiment [25]: fluconazole-exposed Candida albicans growth modulators – fluorescence, retest, confirmation (AID 2467). It is filed as functional, cell-based.
Experiment [26] concerns the target Ras and Rab interactor 1/Tyrosine-protein kinase ABL1 (Homo sapiens, UniProt P00519+Q13671). It is filed as functional.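 Also: biochemical TR-FRET dose-response test measuring inhibition of binding between Rin1 and Abl proteins.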

Active and inactive are the calls of the source.
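For AC50 in this document: cells exposed to compound for roughly 70 hours or longer before luminescence read.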

T2 sequence (P51452 whole entry): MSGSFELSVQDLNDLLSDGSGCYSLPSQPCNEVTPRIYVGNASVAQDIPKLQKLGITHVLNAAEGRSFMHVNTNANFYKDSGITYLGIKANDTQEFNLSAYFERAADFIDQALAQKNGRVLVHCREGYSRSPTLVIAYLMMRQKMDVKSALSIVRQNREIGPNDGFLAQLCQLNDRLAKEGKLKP
Tyrosine-protein phosphatase non-receptor type 11, sequence (Q06124 whole entry): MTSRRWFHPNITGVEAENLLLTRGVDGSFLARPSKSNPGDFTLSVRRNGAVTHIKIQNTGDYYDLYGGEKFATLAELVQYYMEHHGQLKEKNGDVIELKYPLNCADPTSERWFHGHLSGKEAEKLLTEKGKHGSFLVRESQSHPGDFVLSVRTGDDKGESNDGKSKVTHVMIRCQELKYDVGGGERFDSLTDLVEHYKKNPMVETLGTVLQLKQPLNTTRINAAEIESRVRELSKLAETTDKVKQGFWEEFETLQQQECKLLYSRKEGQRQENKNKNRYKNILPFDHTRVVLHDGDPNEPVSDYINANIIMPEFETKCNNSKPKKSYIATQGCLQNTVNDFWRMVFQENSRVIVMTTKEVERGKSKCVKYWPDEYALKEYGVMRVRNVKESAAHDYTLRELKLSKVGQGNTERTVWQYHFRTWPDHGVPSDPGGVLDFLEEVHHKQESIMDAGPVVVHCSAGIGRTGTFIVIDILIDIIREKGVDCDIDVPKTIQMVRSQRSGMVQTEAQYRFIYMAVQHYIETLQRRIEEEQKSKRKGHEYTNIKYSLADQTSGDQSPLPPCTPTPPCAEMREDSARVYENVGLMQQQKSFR
Tyrosine-protein phosphatase non-receptor type 5, sequence (P54829 whole entry): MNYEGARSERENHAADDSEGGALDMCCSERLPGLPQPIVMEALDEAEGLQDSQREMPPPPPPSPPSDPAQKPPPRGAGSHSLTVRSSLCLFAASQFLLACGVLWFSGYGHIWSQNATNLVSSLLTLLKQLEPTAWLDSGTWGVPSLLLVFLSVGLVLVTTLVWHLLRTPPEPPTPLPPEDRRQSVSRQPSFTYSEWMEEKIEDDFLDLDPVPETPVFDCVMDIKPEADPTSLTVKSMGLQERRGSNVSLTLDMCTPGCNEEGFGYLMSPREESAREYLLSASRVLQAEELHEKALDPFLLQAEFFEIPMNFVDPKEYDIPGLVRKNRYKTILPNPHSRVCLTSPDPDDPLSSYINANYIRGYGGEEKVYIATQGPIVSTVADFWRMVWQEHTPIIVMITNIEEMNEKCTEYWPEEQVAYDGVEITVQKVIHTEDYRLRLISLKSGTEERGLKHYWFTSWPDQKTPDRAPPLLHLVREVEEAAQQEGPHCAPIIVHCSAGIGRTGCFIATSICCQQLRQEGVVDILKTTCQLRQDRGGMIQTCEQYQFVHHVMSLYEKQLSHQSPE
Ras and Rab interactor 1/Tyrosine-protein kinase ABL1, sequence (P00519 whole entry): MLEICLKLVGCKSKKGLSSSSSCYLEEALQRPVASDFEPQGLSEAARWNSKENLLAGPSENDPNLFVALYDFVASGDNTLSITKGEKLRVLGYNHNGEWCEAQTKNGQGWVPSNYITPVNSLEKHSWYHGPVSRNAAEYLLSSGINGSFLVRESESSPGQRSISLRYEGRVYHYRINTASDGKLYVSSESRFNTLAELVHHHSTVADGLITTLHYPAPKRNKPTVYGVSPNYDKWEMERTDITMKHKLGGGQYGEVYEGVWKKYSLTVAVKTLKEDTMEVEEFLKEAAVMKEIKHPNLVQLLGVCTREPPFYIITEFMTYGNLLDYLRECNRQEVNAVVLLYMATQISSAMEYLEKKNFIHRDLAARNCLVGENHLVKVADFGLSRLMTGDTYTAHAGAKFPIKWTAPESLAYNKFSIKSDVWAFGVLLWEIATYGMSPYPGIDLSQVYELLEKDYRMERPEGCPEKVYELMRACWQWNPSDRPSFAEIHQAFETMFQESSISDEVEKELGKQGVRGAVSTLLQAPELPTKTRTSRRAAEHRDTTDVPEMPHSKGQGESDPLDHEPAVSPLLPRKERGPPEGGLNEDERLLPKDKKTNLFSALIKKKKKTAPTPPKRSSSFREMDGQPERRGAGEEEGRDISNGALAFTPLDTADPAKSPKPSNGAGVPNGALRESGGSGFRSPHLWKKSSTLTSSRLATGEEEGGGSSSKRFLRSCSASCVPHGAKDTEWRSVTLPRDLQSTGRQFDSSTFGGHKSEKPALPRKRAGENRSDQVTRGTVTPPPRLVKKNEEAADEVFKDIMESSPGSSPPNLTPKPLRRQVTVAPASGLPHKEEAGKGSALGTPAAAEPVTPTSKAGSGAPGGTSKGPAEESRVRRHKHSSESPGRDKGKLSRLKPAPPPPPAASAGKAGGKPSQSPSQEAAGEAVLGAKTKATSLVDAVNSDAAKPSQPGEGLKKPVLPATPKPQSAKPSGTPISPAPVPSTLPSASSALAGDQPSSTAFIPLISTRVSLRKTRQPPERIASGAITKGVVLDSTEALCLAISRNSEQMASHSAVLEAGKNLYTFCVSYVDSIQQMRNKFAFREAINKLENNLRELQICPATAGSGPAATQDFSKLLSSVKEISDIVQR
Ras and Rab interactor 1/Tyrosine-protein kinase ABL1, sequence (Q13671 whole entry): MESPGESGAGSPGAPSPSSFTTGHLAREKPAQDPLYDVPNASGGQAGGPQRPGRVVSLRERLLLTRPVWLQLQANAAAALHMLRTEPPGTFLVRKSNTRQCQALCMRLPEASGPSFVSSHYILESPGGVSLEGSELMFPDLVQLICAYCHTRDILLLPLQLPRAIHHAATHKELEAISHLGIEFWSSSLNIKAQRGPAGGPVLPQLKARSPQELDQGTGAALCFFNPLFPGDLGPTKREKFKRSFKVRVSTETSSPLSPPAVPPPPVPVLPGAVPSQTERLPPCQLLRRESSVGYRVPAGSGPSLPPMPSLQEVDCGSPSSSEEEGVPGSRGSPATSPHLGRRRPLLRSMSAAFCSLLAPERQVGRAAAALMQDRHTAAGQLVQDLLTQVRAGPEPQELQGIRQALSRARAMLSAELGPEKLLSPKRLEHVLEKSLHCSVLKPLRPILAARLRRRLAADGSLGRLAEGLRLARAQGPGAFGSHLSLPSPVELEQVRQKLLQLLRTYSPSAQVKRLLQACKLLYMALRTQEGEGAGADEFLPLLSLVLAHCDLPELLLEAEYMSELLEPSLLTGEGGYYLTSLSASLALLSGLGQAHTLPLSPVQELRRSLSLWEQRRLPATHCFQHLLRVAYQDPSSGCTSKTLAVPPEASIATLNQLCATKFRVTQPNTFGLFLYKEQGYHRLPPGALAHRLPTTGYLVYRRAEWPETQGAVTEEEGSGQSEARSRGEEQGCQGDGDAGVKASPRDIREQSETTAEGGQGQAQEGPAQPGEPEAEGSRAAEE
Phospholipase A2, sequence (P04054 whole entry): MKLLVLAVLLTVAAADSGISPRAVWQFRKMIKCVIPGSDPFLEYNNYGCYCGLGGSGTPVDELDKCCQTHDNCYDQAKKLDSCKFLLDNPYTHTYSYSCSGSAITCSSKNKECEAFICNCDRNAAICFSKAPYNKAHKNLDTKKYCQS
Luciferin 4-monooxygenase, sequence (P08659 whole entry): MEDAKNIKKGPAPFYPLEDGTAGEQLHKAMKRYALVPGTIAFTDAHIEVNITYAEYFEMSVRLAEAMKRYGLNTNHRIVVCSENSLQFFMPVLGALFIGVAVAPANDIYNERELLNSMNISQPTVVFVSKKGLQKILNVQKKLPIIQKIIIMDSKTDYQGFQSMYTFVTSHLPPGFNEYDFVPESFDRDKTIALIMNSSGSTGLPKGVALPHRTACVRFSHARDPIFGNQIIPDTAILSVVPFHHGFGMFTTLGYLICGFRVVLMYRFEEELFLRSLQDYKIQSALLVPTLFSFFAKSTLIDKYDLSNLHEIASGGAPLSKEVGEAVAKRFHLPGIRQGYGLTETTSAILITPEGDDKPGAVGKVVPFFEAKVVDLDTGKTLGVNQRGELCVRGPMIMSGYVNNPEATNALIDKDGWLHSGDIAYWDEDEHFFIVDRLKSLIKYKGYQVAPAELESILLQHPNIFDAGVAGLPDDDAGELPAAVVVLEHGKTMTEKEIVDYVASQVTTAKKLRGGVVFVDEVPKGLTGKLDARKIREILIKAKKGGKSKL
ATP-dependent molecular chaperone HSP82, sequence (C4YTQ8 whole entry): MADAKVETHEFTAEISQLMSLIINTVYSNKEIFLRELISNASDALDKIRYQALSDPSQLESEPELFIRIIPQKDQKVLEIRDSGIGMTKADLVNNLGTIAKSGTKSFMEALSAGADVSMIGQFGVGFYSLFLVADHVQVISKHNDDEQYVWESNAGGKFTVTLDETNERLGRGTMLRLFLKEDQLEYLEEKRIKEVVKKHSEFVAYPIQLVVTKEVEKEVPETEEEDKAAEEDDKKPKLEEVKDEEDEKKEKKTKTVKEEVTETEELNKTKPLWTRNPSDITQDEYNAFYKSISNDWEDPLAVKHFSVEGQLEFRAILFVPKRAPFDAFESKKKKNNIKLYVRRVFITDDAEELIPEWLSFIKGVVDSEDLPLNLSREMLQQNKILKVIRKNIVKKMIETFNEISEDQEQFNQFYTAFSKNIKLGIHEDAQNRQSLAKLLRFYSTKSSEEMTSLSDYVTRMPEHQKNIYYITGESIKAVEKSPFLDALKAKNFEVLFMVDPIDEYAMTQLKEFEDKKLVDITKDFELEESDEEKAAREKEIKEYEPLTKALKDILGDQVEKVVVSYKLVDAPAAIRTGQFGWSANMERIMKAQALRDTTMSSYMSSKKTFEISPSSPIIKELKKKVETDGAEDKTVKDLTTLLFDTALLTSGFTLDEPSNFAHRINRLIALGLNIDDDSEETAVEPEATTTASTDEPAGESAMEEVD

Turning to `Cc1ccc(S(=O)(=O)N2CCC(C(=O)NCc3ccccc3Cl)CC2)cc1`, the IC50 is 17.5 µM (active) at Cysteine protease ATG4B and 9.46 µM (active) at Phospholipase A2.

`Cc1ccc(NC(=O)c2ccc3nc(N4CCOCC4)sc3c2)c(Cl)c1`: the IC50 in [1] is 17.2 µM (active); in [2], 1.97 µM (active); in experiment [3] it was 0.804 µM (active).

`O=C(Oc1ccc(-c2nc(-c3ccccn3)no2)cc1)c1ccccc1`: the EC50 was 3.96 µM (active) in experiment [4]; 16.8 µM (active) with BJ [5]; > 133 µM (inactive) in the experiment with BJ [6]; 4.55 µM (active) in the experiment with BJ [9]; 3.19 µM (active) with BJ [10]; 0.475 µM (active) in [11]. Besides, the EC50 in experiment [12] was 0.421 µM (active). The AC50 in experiment [7] is 2.63 µM (active). Besides, the IC50 in experiment [8] was > 99 µM (inactive).

For the compound `Cc1ccc(NC(=O)C2C3/C=C\CCCCC32)cc1C` (stereo not drawn), in [13], the CC50 was > 100 µM (active).

With `Cc1ccc2c(c1)[C@@H]1CN(C)CC[C@@H]1N2C(=O)Nc1cccc(C(F)(F)F)c1`, the IC50 was 8.23 µM (active) in experiment [14] and 6.31 µM (active) in experiment [15].

With `COC(=O)Nc1sc2c(c1C(N)=O)CCC(C)C2` (stereo not drawn), the IC50 is 1.9 µM (active) in [16]; 4.65 µM (active) in experiment [1]; > 158 µM (not active) in experiment [17]; 1.81 µM (active) in experiment [2]; 3.56 µM (active) in experiment [18]; 0.312 µM (active) in experiment [3].

With `CC1(C)COCN1S(=O)(=O)c1ccc(C(=O)Nc2nnc(-c3ccc(Cl)s3)o2)cc1`, the figures for the IC50 in experiment [14], in [20] and in experiment [24] were 13.8 µM (active), 3.33 µM (active) and 3.39 µM (active), respectively. Further, the EC50 is 22.2 µM (active) in experiment [19]; 0.691 µM (active) in [21]; > 180 µM (inactive) in experiment [22]; 68.5 µM (active) in [23]; 0.841 µM (active) with Streptococcus; 0.308 µM (active) in experiment [25].

Take `Cc1ccc(C2N(c3cccc(Cl)c3)C(=O)N3CCCN23)cc1` (stereo not drawn): the IC50 in [26] was 11.1 µM (inactive).
